This note sets out measurements from ChEMBL document CHEMBL4402598, “Design and Synthesis of Bitopic 2-Phenylcyclopropylmethylamine (PCPMA) Derivatives as Selective Dopamine D3 Receptor Ligands” (J Med Chem, 2020).

Broadly, the Ki is a measure of affinity in units of concentration, obtained from inhibition or displacement.

For one experiment, the target named is D(3) dopamine receptor (Homo sapiens, UniProt P35462). Briefly: Displacement of [3H]-N-methylspiperone from recombinant human D3 receptor (unknown origin) measured after 90 mins by microbeta scintillation counting method.
D(3) dopamine receptor, sequence (P35462 whole entry): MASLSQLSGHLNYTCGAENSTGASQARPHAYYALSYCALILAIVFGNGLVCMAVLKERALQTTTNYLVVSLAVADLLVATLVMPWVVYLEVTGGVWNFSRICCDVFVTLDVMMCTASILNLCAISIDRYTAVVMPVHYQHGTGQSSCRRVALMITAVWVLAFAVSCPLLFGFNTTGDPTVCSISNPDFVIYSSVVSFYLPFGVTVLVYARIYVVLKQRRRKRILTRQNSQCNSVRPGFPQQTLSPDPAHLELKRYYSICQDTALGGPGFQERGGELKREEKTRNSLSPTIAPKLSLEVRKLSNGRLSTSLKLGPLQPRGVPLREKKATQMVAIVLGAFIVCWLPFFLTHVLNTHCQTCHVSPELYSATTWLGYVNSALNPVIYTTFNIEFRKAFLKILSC
The target of experiment [1] is T1, 5-hydroxytryptamine receptor 2C (Homo sapiens, UniProt P28335).
T1 sequence (P28335 whole entry): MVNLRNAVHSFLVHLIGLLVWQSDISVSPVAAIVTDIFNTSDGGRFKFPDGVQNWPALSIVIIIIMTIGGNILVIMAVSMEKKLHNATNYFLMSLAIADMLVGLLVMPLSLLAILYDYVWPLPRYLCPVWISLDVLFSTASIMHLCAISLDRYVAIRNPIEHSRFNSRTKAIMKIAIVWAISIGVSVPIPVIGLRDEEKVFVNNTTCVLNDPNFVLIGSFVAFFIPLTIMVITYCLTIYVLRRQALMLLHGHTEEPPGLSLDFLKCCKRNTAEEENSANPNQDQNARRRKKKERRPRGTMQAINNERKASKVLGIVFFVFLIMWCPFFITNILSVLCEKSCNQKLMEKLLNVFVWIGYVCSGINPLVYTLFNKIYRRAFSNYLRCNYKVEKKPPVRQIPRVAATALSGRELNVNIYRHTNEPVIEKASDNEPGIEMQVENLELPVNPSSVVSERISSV
Briefly: Displacement of [3H]-Mesulergine from recombinant human 5HT2C receptor expressed in HEKT cell membranes measured after 90 mins by microbeta scintillation counting method. Background: Loss of bound radioactivity is the signal in a displacement assay; it reports binding, not function.

The target of the next experiment is D(1B) dopamine receptor (Homo sapiens, UniProt P21918). Briefly: Displacement of [3H]-SCH23390 from recombinant human D5 receptor transiently expressed in HEKT cell membranes measured after 90 mins by microbeta scintillation counting method.
D(1B) dopamine receptor, sequence (P21918 whole entry): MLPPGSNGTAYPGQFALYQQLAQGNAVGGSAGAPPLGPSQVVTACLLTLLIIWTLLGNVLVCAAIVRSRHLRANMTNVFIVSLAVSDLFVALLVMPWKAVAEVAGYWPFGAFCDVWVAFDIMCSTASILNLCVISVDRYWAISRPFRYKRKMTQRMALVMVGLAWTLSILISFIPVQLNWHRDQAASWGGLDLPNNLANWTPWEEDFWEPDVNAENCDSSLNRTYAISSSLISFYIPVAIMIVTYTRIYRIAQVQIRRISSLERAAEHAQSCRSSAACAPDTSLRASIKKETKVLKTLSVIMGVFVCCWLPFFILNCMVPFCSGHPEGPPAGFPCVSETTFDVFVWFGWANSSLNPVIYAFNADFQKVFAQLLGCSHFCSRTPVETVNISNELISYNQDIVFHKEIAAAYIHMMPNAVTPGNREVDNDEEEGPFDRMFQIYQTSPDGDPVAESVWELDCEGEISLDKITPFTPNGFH
The target of a further experiment is T2, D(4) dopamine receptor (Homo sapiens, UniProt P21917).
T2 sequence (P21917 whole entry): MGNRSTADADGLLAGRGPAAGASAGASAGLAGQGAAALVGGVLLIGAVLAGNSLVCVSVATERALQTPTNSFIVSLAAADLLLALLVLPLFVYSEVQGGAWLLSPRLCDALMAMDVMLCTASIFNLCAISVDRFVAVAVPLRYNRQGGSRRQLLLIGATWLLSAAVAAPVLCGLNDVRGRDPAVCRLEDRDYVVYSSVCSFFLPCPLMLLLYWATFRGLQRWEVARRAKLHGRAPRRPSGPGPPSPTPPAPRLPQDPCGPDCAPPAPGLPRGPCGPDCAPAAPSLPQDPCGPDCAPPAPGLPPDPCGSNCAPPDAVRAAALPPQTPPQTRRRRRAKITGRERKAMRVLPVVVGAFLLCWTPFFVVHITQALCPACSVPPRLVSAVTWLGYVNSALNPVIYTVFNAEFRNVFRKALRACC
Briefly: Displacement of [3H]-N-methylspiperone from recombinant human D4 receptor stably expressed in HEK cell membranes measured after 90 mins by microbeta scintillation counting method.

For the next experiment, the target named is D(1A) dopamine receptor (Homo sapiens, UniProt P21728). Description: Displacement of [3H]-SCH23390 from recombinant human D1 receptor transiently expressed in HEKT cell membranes measured after 90 mins by microbeta scintillation counting method.
D(1A) dopamine receptor, sequence (P21728 whole entry): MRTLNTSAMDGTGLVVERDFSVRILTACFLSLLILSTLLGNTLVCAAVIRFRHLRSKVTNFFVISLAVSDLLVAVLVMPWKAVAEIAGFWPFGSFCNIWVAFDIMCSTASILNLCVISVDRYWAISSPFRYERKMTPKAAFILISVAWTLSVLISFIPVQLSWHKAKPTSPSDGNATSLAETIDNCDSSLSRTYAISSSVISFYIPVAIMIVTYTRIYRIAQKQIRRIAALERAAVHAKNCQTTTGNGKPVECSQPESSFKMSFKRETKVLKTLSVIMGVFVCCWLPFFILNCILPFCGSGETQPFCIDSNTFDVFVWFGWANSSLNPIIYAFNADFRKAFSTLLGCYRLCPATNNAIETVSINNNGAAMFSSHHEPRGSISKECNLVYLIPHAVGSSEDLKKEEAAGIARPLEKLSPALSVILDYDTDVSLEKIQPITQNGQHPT
A further experiment concerns the target D(2) dopamine receptor (Homo sapiens, UniProt P14416). Briefly: Displacement of [3H]-N-methylspiperone from recombinant human D2 receptor stably expressed in fibroblast cell membranes measured after 90 mins by microbeta scintillation counting method.

The structures appear in SMILES notation. A value given as a limit tells only on which side of the number the result lay.

D(2) dopamine receptor, sequence (P14416 whole entry): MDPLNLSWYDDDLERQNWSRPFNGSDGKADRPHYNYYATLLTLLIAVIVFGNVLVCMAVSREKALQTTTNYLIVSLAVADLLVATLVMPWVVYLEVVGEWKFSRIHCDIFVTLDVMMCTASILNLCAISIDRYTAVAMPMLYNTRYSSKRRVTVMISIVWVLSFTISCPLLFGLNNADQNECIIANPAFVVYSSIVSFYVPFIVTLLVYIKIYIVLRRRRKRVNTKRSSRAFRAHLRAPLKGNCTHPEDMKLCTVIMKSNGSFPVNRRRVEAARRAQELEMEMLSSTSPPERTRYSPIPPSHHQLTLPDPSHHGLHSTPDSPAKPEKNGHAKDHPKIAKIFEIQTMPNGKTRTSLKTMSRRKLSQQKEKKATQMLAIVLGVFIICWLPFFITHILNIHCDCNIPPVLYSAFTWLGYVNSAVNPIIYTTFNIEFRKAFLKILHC

In the case of `CCCN(CCCCNC(=O)c1cc2ccccc2[nH]1)CC1CC1c1ccc(F)cc1` (stereo not given), the Ki was determined as 45.7 nM on D(3) dopamine receptor; 219 nM in experiment [1]; 10500 nM at D(1B) dopamine receptor; 1610 nM at D(4) dopamine receptor; 1460 nM on D(1A) dopamine receptor; 5930 nM at D(2) dopamine receptor.

Regarding `CCCN(CCCCNC(=O)c1cc2ccccc2[nH]1)CC1CC1c1cccc(F)c1` (stereo not given), the Ki at D(3) dopamine receptor is 18.8 nM; in experiment [1], 106 nM; on D(1B) dopamine receptor it was over 5000 nM; at D(4) dopamine receptor, 671 nM; on D(1A) dopamine receptor, 1100 nM; on D(2) dopamine receptor it was 3490 nM.

For `CCOc1ccc(F)cc1C1CC1CN(CC)CCCSc1nnc(-c2ccccc2)n1C` (stereo not given), the Ki at D(3) dopamine receptor was 55 nM; on D(1B) dopamine receptor, 1580 nM; at D(4) dopamine receptor, 101 nM; at D(1A) dopamine receptor, 1150 nM; on D(2) dopamine receptor, 380 nM.

Take `CCCN(CCCCNC(=O)c1ccc2ccccc2c1)CC1CC1c1cc(Cl)ccc1OC` (stereo not given): the Ki was 26.9 nM on D(3) dopamine receptor; 85 nM in experiment [1]; 1100 nM at D(1B) dopamine receptor; 945 nM at D(4) dopamine receptor; 930 nM at D(1A) dopamine receptor; 1120 nM on D(2) dopamine receptor.

On to `CCOc1ccc(F)cc1C1CC1CN(C)CCCSc1nnc(-c2ccccc2)n1C` (stereo not given), for which the Ki at D(3) dopamine receptor was 550 nM; on D(1B) dopamine receptor, over 5000 nM; at D(4) dopamine receptor, 989 nM; at D(1A) dopamine receptor, 1120 nM; on D(2) dopamine receptor it was over 5000 nM.

Take `CCN(CCCSc1nnc(-c2ccccc2)n1C)CC1CC1c1cc(F)ccc1OCCF` (stereo not given): the Ki came to 113 nM at D(3) dopamine receptor; 2000 nM on D(1B) dopamine receptor; 179 nM at D(4) dopamine receptor; 584 nM at D(1A) dopamine receptor; 845 nM on D(2) dopamine receptor.

Turning to `CCN(CCCSc1nnc(-c2ccccc2)n1C)CC1CC1c1cc(Cl)ccc1OC` (stereo not given), the Ki was 31.6 nM at D(3) dopamine receptor; 203 nM in experiment [1]; over 5000 nM at D(1B) dopamine receptor; 241 nM on D(4) dopamine receptor; 1510 nM at D(1A) dopamine receptor; 238 nM at D(2) dopamine receptor.

Regarding `CCCN(CCCCNC(=O)c1cc2ccccc2[nH]1)CC1CC1c1cc(F)ccc1OC` (stereo not given), the inhibitory constant (Ki) was 11.2 nM at D(3) dopamine receptor; 68 nM in experiment [1]; 789 nM on D(1B) dopamine receptor; 376 nM on D(4) dopamine receptor; 871 nM on D(1A) dopamine receptor; 507 nM on D(2) dopamine receptor.

As to `CCN(CCCCNC(=O)c1ccc2ccccc2c1)CC1CC1c1cc(Cl)ccc1OC` (stereo not given), the Ki is 23.4 nM on D(3) dopamine receptor; 49 nM in experiment [1]; 571 nM on D(1B) dopamine receptor; 553 nM at D(4) dopamine receptor; 1980 nM at D(1A) dopamine receptor; 408 nM at D(2) dopamine receptor.

Take `CCCN(CCCCNC(=O)c1ccc(-c2ccccn2)cc1)CC1CC1c1ccc(F)cc1` (stereo not given): the Ki was 106 nM on D(3) dopamine receptor; 2170 nM in experiment [1]; over 5000 nM on D(1B) dopamine receptor; 2880 nM on D(4) dopamine receptor; 3630 nM at D(1A) dopamine receptor; over 5000 nM at D(2) dopamine receptor.

On to `CCN(CCCSc1nnc(-c2ccccc2)n1C)CC1CC1c1cc(F)ccc1OC` (stereo not given), for which the Ki stood at 44 nM at D(3) dopamine receptor; 1850 nM on D(1B) dopamine receptor; 30 nM on D(4) dopamine receptor; 1720 nM at D(1A) dopamine receptor; 275 nM on D(2) dopamine receptor.

Consider `CCCN(CCCCNC(=O)c1ccc(-c2ccccn2)cc1)CC1CC1c1cccc(Cl)c1Cl` (racemic), for which the Ki was 97.7 nM in experiment [1], over 5000 nM at D(1B) dopamine receptor, 2010 nM on D(4) dopamine receptor and 1650 nM at D(1A) dopamine receptor.

As for `CCCN(CCCCNC(=O)c1cc2ccccc2[nH]1)CC1CC1c1ccc(Cl)cc1` (stereo not given), the Ki on D(3) dopamine receptor amounted to 25.7 nM; in experiment [1], 137 nM; at D(1B) dopamine receptor, 9290 nM; at D(4) dopamine receptor, 510 nM; at D(1A) dopamine receptor, 649 nM; at D(2) dopamine receptor, 3160 nM.

Take `CCCN(CCCCNC(=O)c1ccc2ccccc2c1)CC1CC1c1ccc(Cl)cc1` (stereo not given): the Ki was 32.6 nM on D(3) dopamine receptor; 179 nM in experiment [1]; 6110 nM on D(1B) dopamine receptor; 1590 nM at D(4) dopamine receptor; 509 nM on D(1A) dopamine receptor; 4610 nM on D(2) dopamine receptor.

With `CCCN(CCCCNC(=O)c1ccc2ccccc2c1)CC1CC1c1ccc(C(F)(F)F)cc1` (stereo not given), the Ki on D(3) dopamine receptor was 43 nM; in experiment [1] it was 1260 nM; on D(1B) dopamine receptor, 5800 nM; at D(4) dopamine receptor it was 215 nM; on D(1A) dopamine receptor it was 1710 nM; on D(2) dopamine receptor, over 5000 nM.

For the molecule `CCCN(CCCCNC(=O)c1cc2ccccc2[nH]1)CC1CC1c1cccc(Cl)c1` (stereo not given), the Ki at D(3) dopamine receptor is 11.1 nM; in experiment [1], 132 nM; at D(1B) dopamine receptor it was over 5000 nM; on D(4) dopamine receptor it was 878 nM; at D(1A) dopamine receptor, 992 nM; on D(2) dopamine receptor, 3490 nM.

As to `COc1ccc(Cl)cc1C1CC1CN(CCCSc1nnc(-c2ccccc2)n1C)CC1CC1` (stereo not given), the Ki on D(3) dopamine receptor is 23.7 nM; in experiment [1], 274 nM; on D(1B) dopamine receptor, over 5000 nM; on D(4) dopamine receptor, 163 nM; on D(1A) dopamine receptor, 636 nM; on D(2) dopamine receptor it was 216 nM.

As to `CCCN(CCCCNC(=O)c1cc2ccccc2[nH]1)CC1CC1c1cccc(Cl)c1Cl` (racemic), the Ki in experiment [1] came out at 105 nM; at D(1B) dopamine receptor, 3500 nM; at D(4) dopamine receptor, 1130 nM; at D(1A) dopamine receptor, 891 nM; on D(2) dopamine receptor it was 1500 nM.

`CCCN(CCCCNC(=O)c1ccc2ccccc2c1)CC1CC1c1cccc(Cl)c1` (stereo not given): the Ki stood at 15.5 nM on D(3) dopamine receptor; 136 nM in experiment [1]; 8670 nM on D(1B) dopamine receptor; 1320 nM at D(4) dopamine receptor; 940 nM on D(1A) dopamine receptor; 4010 nM at D(2) dopamine receptor.

As to `CCCN(CCCCNC(=O)c1ccc(-c2ccccn2)cc1)CC1CC1c1cccc(Cl)c1` (stereo not given), the Ki at D(3) dopamine receptor was 26.5 nM; in experiment [1], 898 nM; at D(1B) dopamine receptor it was 5580 nM; at D(4) dopamine receptor, 2330 nM; at D(1A) dopamine receptor, 832 nM; at D(2) dopamine receptor it was over 5000 nM.

Take `CCCN(CCCCNC(=O)c1ccc2ccccc2c1)CC1CC1c1cccc(F)c1` (stereo not given): the Ki at D(3) dopamine receptor is 26.7 nM; in experiment [1], 165 nM; at D(1B) dopamine receptor it was over 5000 nM; on D(4) dopamine receptor, 1300 nM; at D(1A) dopamine receptor it was 1310 nM; at D(2) dopamine receptor, 4820 nM.

Consider `CCOc1ccc(F)cc1C1CC1CNCCCSc1nnc(-c2ccccc2)n1C` (stereo not given), for which the Ki was determined as 219 nM at D(3) dopamine receptor; 589 nM on D(1B) dopamine receptor; 501 nM at D(4) dopamine receptor; 295 nM at D(1A) dopamine receptor; 661 nM on D(2) dopamine receptor.

On to `COc1ccc(F)cc1C1CC1CN(CCCSc1nnc(-c2ccccc2)n1C)C(C)C` (stereo not given), for which the Ki is 105 nM on D(3) dopamine receptor; 495 nM in experiment [1]; over 5000 nM at D(1B) dopamine receptor; 326 nM at D(4) dopamine receptor; over 5000 nM at D(1A) dopamine receptor; 513 nM on D(2) dopamine receptor.

Regarding `Cn1c(SCCCNCC2CC2c2cc(F)ccc2OCCF)nnc1-c1ccccc1` (stereo not given), the inhibitory constant (Ki) stood at 525 nM on D(3) dopamine receptor; 1080 nM at D(1B) dopamine receptor; 962 nM on D(4) dopamine receptor; 369 nM on D(1A) dopamine receptor; 1500 nM at D(2) dopamine receptor.

On to `COc1ccc(F)cc1C1CC1CNCCCSc1nnc(-c2ccccc2)n1C` (stereo not given), for which the Ki on D(3) dopamine receptor worked out at 89.8 nM; at D(1B) dopamine receptor, 926 nM; at D(4) dopamine receptor it was 133 nM; on D(1A) dopamine receptor, 631 nM; at D(2) dopamine receptor, 253 nM.

For `CCCN(CCCCNC(=O)c1ccc(-c2ccccn2)cc1)CC1CC1c1cc(F)ccc1OC` (racemic), the Ki in experiment [1] is 53 nM; on D(1B) dopamine receptor, over 5000 nM; at D(4) dopamine receptor, 1140 nM; on D(1A) dopamine receptor, 1760 nM; on D(2) dopamine receptor, 3140 nM.

As for `COc1ccc(F)cc1C1CC1CN(C)CCCSc1nnc(-c2ccccc2)n1C` (stereo not given), the Ki is 84.5 nM on D(3) dopamine receptor; 1000 nM at D(1B) dopamine receptor; 85.1 nM at D(4) dopamine receptor; 794 nM at D(1A) dopamine receptor; 324 nM on D(2) dopamine receptor.

For `CN(CCCSc1nnc(-c2ccccc2)n1C)CC1CC1c1cc(F)ccc1OCCF` (stereo not given), the Ki on D(3) dopamine receptor is 562 nM; at D(1B) dopamine receptor, 2150 nM; at D(4) dopamine receptor, 977 nM; at D(1A) dopamine receptor, 1470 nM; on D(2) dopamine receptor, 2440 nM.

On to `CCCN(CCCCNC(=O)c1ccc2ccccc2c1)CC1CC1c1cccc(Cl)c1Cl` (racemic), for which the Ki in experiment [1] came out at 123 nM; on D(1B) dopamine receptor it was 4020 nM; at D(4) dopamine receptor, 1340 nM; on D(1A) dopamine receptor, 891 nM; on D(2) dopamine receptor, 2100 nM.
